Measured values taken from publication PMC7824081, “Inhibition of DOT1L by Half-Selenopsammaplin A Analogs Suppresses Tumor Growth and EMT-Mediated Metastasis in Triple-Negative Breast Cancer” (Pharmaceuticals, 2020).

How the values were obtained:
DOT1L = target: T1, DOT1L (Homo sapiens, UniProt Q8TEK3); assay: DOT1L enzyme activity assay (cell-free); assay type: biochemical; details: 500 ng/well DOT1L, 2 h incubation
T1 construct: purchased BPS Bioscience 52202
Description: DOT1L enzyme activity was measured using 5 μM S-adenosyl methionine (SAM) as the methyl group donor, synthesized DOT1L substrate as the substrate, and 25 ng/μL DOT1L enzymes from BPS Bioscience (Cat. No. 52202; San Diego, CA, USA) according to the manufacturer’s instructions.

MDA-MB-231 TNBC cells = assay: SRB cell proliferation assay, MDA-MB-231; assay type: cell-based, human
Description: Human breast epithelial cell line (MCF10A) and human TNBC cell lines (MDA-MB-468, MDA-MB-231, Hs578T, and HCC38 cells) were provided by the American Type Culture Collection (Manassas, VA, USA). MCF10A cells were cultured in Dulbecco’s Modified Eagle’s Medium/Nutrient Mixture F-12 containing 5% donor horse serum, 100 ng/mL cholera toxin, 10 µg/mL human insulin, 20 ng/mL epidermal growth factor, 0.5 µg/mL hydrocortisone, and penicillin-streptomycin (sodium penicillin G: 100 units/mL; streptomycin: 100 μg/mL). The TNBC cells were cultured in medium [Dulbecco’s Modified Eagle’s Medium for MDA-MB-468, MDA-MB-231, and Hs578T cells; Roswell Park Memorial Institute 1640 medium for HCC38 cells] supplemented with penicillin-streptomycin and 10% fetal bovine serum at 37 °C in a humidified incubator with 5% carbon dioxide. MCF10A cells were cultured in DMEM/F12 containing 5% donor horse serum, 100 ng/mL cholera toxin, 10 µg/mL human insulin, 20 ng/mL epidermal growth factor, 0.5 µg/mL hydrocortisone and penicillin-streptomycin. All reagents used for cell culture, including culture medium, fetal bovine serum, trypsin-EDTA solution (1×), and penicillin-streptomycin solution (100×), were purchased from Gibco (Grand Island, NE, USA). Laemmli sample buffer (2×) and 2-mercaptoethanol were purchased from Bio-Rad Laboratories, Inc. (Hercules, CA, USA). EPZ-5676 was purchased from Cayman Chemical (Ann Arbor, MI, USA). Dimethyl sulfoxide (DMSO), bicinchoninic acid, copper (II) sulfate solution, bovine serum albumin (BSA), trichloroacetic acid, sulforhodamine B (SRB), and paclitaxel were purchased from Sigma–Aldrich (St. Louis, MO, USA).
Cell proliferation was evaluated using the SRB assay. Briefly, cells were seeded in 96-well plates and incubated for 30 min (for 0-day controls) or treated with test compounds for the times indicated. After incubation, the cells were fixed, dried, and stained with 0.4% (w/v) SRB in 1% (v/v) acetic acid solution. Unbound dye was removed by washing, and stained cells were dissolved in 10 mM Tris (pH 10.0). Cell proliferation was then determined by measuring the absorbance at 515 nm.

[1] = system: H3K79 methylation (DOT1L) in MDA-MB-231 cells; assay: Western blotting of H3K79 methylation in MDA-MB-231 cells; assay type: cell-based, human; details: indicated concentrations, 48 h
Description: (§1) Total cell lysates were prepared in 2× sample loading buffer [250 mM Tris-HCl (pH 6.8), 10% glycerol, 4% sodium dodecyl sulfate (SDS), 2% β-mercaptoethanol, 0.006% bromophenol blue, 5 mM sodium orthovanadate, and 50 mM sodium fluoride; Bio-Rad, Hercules, CA, USA]. The protein concentrations of samples were quantified using the bicinchoninic acid (BCA) method and a BCA Protein Assay Kit (Thermo Fisher Scientific, Waltham, MA, USA). Equal amounts of protein (5–20 μg) were separated by 6–13% SDS-polyacrylamide gel electrophoresis (PAGE) and transferred to polyvinylidene fluoride membranes (Millipore, Bedford, MA, USA). The membranes were blocked with 5% bovine serum albumin (Sigma-Aldrich) and then probed with anti-DOT1L, anti-H3K79me2, anti-β-Actin, anti-histone H3, anti-H3K4me2, anti-H3K27me2, anti-H3K36me2, anti-H3K79me1, anti-H3K79me3, and anti-Vimentin antibodies purchased from Cell Signaling Technology (Beverly, MA, USA) or with anti-E-cadherin and anti-N-cadherin antibodies purchased from (BD Biosciences, San Jose, CA, USA). The blots were detected using a WEST-Queen detection system (iNtRON Biotechnology, Seongnam, Korea).

[2] = system: other histone H3 methylated lysine residues in MDA-MB-231 cells; assay: Western blotting of other methylated histone H3 lysine residues in MDA-MB-231 cells; assay type: cell-based, human; details: 48 h
Description: as §1

MDA-MB-231 cells [3] = assay: Transwell cell invasion assay; assay type: cell-based, human; details: 24 h pretreatment, 24 h Transwell
Description: Twenty-four-well Transwell membrane inserts (diameter: 6.5 mm, pore size: 8 μm; Corning, Tewksbury, MA, USA) were each coated with 10 μL of type I collagen (0.5 mg/mL, BD Biosciences, San Diego, CA, USA) and 20 μL of a 1:20 mixture of Matrigel (BD Biosciences) in PBS. After treatment with the indicated compounds for 24 h, MDA-MB-231 human TNBC cells were harvested, resuspended in serum-free medium, and plated (2 × 10^5 cells/chamber) in the upper chambers of the Matrigel-coated Transwell inserts. Medium containing 30% FBS was used as a chemoattractant in the lower chambers. After a 24 h incubation, the cells that had migrated to the outer surfaces of the lower chambers were fixed and stained using the Diff-Quik Staining Kit (Sysmex, Kobe, Japan) and imaged using a Vectra 3.0 Automated Quantitative Pathology Imaging System (Perkin Elmer, Waltham, MA, USA). Representative images from three separate experiments are shown, and the numbers of invaded cells were counted in 5 randomly selected microscopic fields (200× magnification).

MDA-MB-231 cells [4] = assay: Wound healing assay (cell migration); assay type: cell-based, human; details: 24 h
Description: MDA-MB-231 human TNBC cells were grown to 90% confluence in a 6-well plate. Subsequently, each cell monolayer was artificially wounded using a Scratcher (SPL Life Sciences, Pocheon, Republic of Korea), and the detached cells were removed by washing with phosphate-buffered saline (PBS, Invitrogen Corp., Carlsbad, CA, USA). The wounded cultures were then incubated with medium containing 1% FBS and various concentrations of 9l and PsA for 24 h. The wounds were photographed at 0 and 24 h under an inverted microscope (Olympus, Tokyo, Japan). The wound areas were quantified using ImageJ software (National Institutes of Health, Bethesda, MD, USA) and presented as the percent wound healing (%) relative to the wound area at 0 h.

T1 sequence (Q8TEK3 whole entry): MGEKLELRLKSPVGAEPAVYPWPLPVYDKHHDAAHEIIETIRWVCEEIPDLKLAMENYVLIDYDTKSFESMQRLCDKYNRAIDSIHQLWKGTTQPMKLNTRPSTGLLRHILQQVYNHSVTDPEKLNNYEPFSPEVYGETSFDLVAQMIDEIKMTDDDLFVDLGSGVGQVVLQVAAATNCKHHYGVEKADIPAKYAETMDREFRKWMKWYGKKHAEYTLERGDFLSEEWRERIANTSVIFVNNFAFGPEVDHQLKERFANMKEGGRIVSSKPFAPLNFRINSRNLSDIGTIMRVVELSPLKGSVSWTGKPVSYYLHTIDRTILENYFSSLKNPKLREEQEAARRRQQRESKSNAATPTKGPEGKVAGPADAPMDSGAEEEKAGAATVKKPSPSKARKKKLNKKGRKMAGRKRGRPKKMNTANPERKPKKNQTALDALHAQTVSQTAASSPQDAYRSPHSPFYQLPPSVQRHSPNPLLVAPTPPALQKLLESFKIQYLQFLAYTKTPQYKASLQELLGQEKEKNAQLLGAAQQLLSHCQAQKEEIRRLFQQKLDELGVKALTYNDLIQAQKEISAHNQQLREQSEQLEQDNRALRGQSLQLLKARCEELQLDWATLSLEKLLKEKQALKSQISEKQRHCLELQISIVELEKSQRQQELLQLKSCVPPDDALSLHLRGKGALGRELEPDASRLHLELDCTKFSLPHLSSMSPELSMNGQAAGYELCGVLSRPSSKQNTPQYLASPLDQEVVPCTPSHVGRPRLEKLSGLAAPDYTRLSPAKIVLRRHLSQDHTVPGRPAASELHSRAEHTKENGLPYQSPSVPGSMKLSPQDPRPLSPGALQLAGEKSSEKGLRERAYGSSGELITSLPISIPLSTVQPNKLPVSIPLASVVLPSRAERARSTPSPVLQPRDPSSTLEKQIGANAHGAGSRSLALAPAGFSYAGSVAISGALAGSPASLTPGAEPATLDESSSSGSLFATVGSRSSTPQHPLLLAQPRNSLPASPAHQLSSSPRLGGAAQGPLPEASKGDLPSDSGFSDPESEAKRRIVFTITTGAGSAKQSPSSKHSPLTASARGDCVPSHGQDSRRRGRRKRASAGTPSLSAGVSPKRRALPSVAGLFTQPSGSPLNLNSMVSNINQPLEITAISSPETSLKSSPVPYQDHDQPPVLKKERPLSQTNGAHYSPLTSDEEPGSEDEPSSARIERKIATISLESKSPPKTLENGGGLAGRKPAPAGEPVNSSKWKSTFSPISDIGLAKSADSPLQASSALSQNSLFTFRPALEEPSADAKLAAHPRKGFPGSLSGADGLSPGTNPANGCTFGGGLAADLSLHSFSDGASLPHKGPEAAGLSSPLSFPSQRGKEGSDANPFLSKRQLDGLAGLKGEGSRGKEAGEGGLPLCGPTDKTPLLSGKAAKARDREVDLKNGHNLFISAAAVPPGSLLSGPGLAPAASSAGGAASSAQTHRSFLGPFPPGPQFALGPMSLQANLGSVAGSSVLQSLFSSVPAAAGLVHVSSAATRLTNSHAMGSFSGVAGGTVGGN

Structure (SMILES): CC(C)(C)c1ccc(C/C(=N\O)C(=O)NCC[Se]Sc2ccccc2)cc1 [9l, (E)-3-(4-(tert-Butyl)phenyl)-2-(hydroxyimino)-N-(2-((phenylthio)selanyl)ethyl)propanamide]
- IC50 (DOT1L): 363 nM
- IC50 (MDA-MB-231 TNBC cells; Homo sapiens, MDA-MB-231, 72 h, SRB assay): 160 nM
- Therapeutic Index (MDA-MB-231 TNBC cells; ratio of IC50 values between MCF10A and MDA-MB-231 cells): 161.63
- H3K79 methylations [1]: effectively suppressed H3K79 methylations in a concentration-dependent manner
- other histone H3 methylated lysine residues [2]: not affected
- cell invasion (MDA-MB-231 cells [3]): significantly inhibited
- wound closure (cell migration) (MDA-MB-231 cells [4]): significantly inhibited
